Source: US20030229113A1, “Keratinocyte growth inhibitors and hydroxamic acid derivatives” (priority 2003, published 2003)
pIC50: −log10 of the molar value.

Test system: solubilizing enzyme of HB-EGF
Assay: Inhibition of TPA-stimulated release of HB-EGF from HT-1080 transfectant expressing HB-EGF/alkaline phosphatase fusion protein
Assay type: cell-based, human
Conditions: HT-1080 HB-EGF-AP transfectant, TPA 60 nM for 60 min, AP activity in conditioned medium (OD405)
Protocol: Human fibrosarcoma HT-1080 stable transfectant expressing fusion protein of HB-EGF and human placental alkaline phosphatase (AP) were used for following experiments.
The cultured transfectant was treated with Trypsin-EDTA solution, and suspended in Minimum Essential Medium (without phenol red; supplemented with 10% heat-inactivated fetal calf serum; MEM) at the concentration of 1×10^5 cells/ml. Each 0.2 ml of the cell suspension was dispensed into individual wells of 96 well microplate, and incubated overnight in the CO2 incubator (37° C.). After the incubation, the conditioned medium was removed, and the wells were washed once with 0.2 ml of phosphate buffered saline. The cells were treated with 0.1 ml of compound solution [compound solutions in dimethylsulfoxide (DMSO) were diluted 100 times with MEM] for 30 min at 37° C. Then the compound solutions were removed, and cells were treated with 0.2 ml of TPA solution (120 μM) of stock solution was diluted to 60 nM with MEM) containing same concentration of the compound for 60 min at 37° C. The cells treated same procedure without compound were used as control.
After these treatments, each 0.1 ml of conditioned medium was transferred to individual wells of new 96 well microplate and incubated at 65° C. for 10 min to inactivate endogenous alkaline phosphatase. One hundred microliter of substrate solution (1 mg/ml of p-nitrophenyl phosphate in 0.01% magnesium chloride/1 M diethanolamine) for AP was added to each well and incubated for 120 min at room temperature in the dark. The OD405 of each well was measured with microplate reader. The IC50 values of the compounds were calculated from the concentration-inhibition curves.

| Compound | pIC50 |
| --- | --- |
| O=C(NO)C1Cc2nccnc2CN1S(=O)(=O)c1ccc(Oc2cnccn2)cc1 (racemic) [the compound(5), (±)-N-Hydroxy-6-[4-(pyrazine-2-yloxy)benzenesulfonyl]-5,6,7,8-tetrahydropyrido[3,4-b]pyrazine-7-carboxamide] | 6.05 |
| O=C(NO)C1Cc2nccnc2CN1S(=O)(=O)c1ccc(Oc2ccncc2)cc1 (racemic) [the compound(2), (±)-N-Hydroxy-6-[4-(pyridine-4-yloxy)benzenesulfonyl]-5,6,7,8-tetrahydropyrido[3,4-b]pyrazine-7-carboxamide] | 6.00 |
| CSCCCOc1ccc(S(=O)(=O)N2Cc3nccnc3CC2C(=O)NO)cc1 (racemic) [the compound(10), (±)-N-Hydroxy-6-[4-(3-methylthiopropoxy)benzenesulfonyl]-5,6,7,8-tetrahydropyrido[3,4-b]pyrazine-7-carboxamide] | 6.47 |

Same assay, conditions: HT-1080 HB-EGF-AP transfectant, TPA 60 nM for 60 min, AP activity in conditioned medium (OD405); read-out: IC50

| Compound | pIC50 |
| --- | --- |
| CS(=O)(=O)CCCOc1ccc(S(=O)(=O)N2Cc3nccnc3CC2C(=O)NO)cc1 (single isomer, unassigned; (+)) [the compound(48), (+)-N-Hydroxy-6-[4-(3-methansulfonylpropoxy)benzenesulfonyl]-5,6,7,8-tetrahydropyrido[3,4-b]pyrazine-7-carboxamide] | 5.74 |
| CCCc1ccc(S(=O)(=O)N2Cc3nccnc3CC2C(=O)NO)cc1 (single isomer, unassigned; (+)) [the compound(43), (+)-N-Hydroxy-6-(4-propylbenzenesulfonyl)-5,6,7,8-tetrahydropyrido[3,4-b]pyrazine-7-carboxamide] | 5.72 |
| CCOC(=O)COc1ccc(S(=O)(=O)N2Cc3nccnc3CC2C(=O)NO)cc1 (single isomer, unassigned; (+)) [the compound(30), (+)-N-Hydroxy-6-(4-ethoxycarbonylmethoxy-benzenesulfonyl)-5,6,7,8-tetrahydropyrido[3,4-b]pyrazine-7-carboxamide] | 6.00 |
| CC(C)COc1ccc(S(=O)(=O)N2Cc3nccnc3CC2C(=O)NO)cc1 (single isomer, unassigned; (+)) [the compound(22), (+)-N-Hydroxy-6-(4-isobuthoxybenzenesulfonyl)-5,6,7,8-tetrahydropyrido[3,4-b]pyrazine-7-carboxamide] | 5.44 |
| Nc1ccc(Oc2ccc(S(=O)(=O)N3Cc4nccnc4CC3C(=O)NO)cc2)cc1 (racemic) [the compound(6), (±)-N-Hydroxy-6-[4-(4-aminophenoxy)benzenesulfonyl]-5,6,7,8-tetrahydropyrido[3,4-b]pyrazine-7-carboxamide] | 5.96 |
| Nc1ccc(S(=O)(=O)N2Cc3nccnc3CC2C(=O)NO)cc1 (single isomer, unassigned; (+)) [the compound(39), (+)-N-Hydroxy-6-(4-aminobenzenesulfonyl)-5,6,7,8-tetrahydropyrido[3,4-b]pyrazine-7-carboxamide] | 5.74 |
| C=Cc1ccc(S(=O)(=O)N2Cc3nccnc3CC2C(=O)NO)cc1 (single isomer, unassigned; (+)) [the compound(44), (+)-N-Hydroxy-6-(4-vinylbenzenesulfonyl)-5,6,7,8-tetrahydropyrido[3,4-b]pyrazine-7-carboxamide] | 5.96 |
| COCCCCOc1ccc(S(=O)(=O)N2Cc3nccnc3CC2C(=O)NO)cc1 (racemic) [the compound(11), (±)-N-Hydroxy-6-[4-(methoxybutoxy)benzenesulfonyl]-5,6,7,8-tetrahydropyrido[3,4-b]pyrazine-7-carboxamide] | 5.85 |
| CCOC(=O)CCCOc1ccc(S(=O)(=O)N2Cc3nccnc3CC2C(=O)NO)cc1 (single isomer, unassigned; (+)) [the compound(32), (+)-N-Hydroxy-6-[4-(3-ethoxycarbonylpropoxy)benzenesulfonyl]-5,6,7,8-tetrahydropyrido[3,4-b]pyrazine-7-carboxamide] | 5.96 |
| CC(C)(C)C(=O)Oc1ccc(S(=O)(=O)N2Cc3nccnc3CC2C(=O)NO)cc1 (single isomer, unassigned; (+)) [the compound(28), (+)-N-Hydroxy-6-(4-pivaloyloxybenzenesulfonyl)-5,6,7,8-tetrahydropyrido[3,4-b]pyrazine-7-carboxamide] | 5.55 |
| COc1ccc(S(=O)(=O)N2C(C)c3nccnc3C(C)C2C(=O)NO)cc1 (stereo not drawn) [the compound(49), 7,8-cis-N-Hydroxy-5,8-dimethyl-6-(4-methoxybenzenesulfonyl)-5,6,7,8-tetrahydropyrido[3,4-b]pyrazine-7-carboxamide] | 5.25 |
| CCCCCCc1ccc(S(=O)(=O)N2Cc3nccnc3CC2C(=O)NO)cc1 (single isomer, unassigned; (+)) [the compound(38), (+)-N-Hydroxy-6-(4-hexylbenzenesulfonyl)-5,6,7,8-tetrahydropyrido[3,4-b]pyrazine-7-carboxamide] | 5.77 |
| CSc1ccc(S(=O)(=O)N2Cc3nccnc3CC2C(=O)NO)cc1 (single isomer, unassigned; (+)) [the compound(35), (+)-N-Hydroxy-6-(4-methylthiobenzenesulfonyl)-5,6,7,8-tetrahydropyrido[3,4-b]pyrazine-7-carboxamide] | 5.82 |
| O=C(NO)C1Cc2nccnc2CN1S(=O)(=O)c1ccc(OCCO)cc1 (single isomer, unassigned; (+)) [the compound(34), (+)-N-Hydroxy-6-[4-(2-hydroxyethoxy)benzenesulfonyl]-5,6,7,8-tetrahydropyrido[3,4-b]pyrazine-7-carboxamide] | 5.82 |
| COCCOc1ccc(S(=O)(=O)N2Cc3nccnc3CC2C(=O)NO)cc1 (racemic) [the compound(8), (±)-N-Hydroxy-6-[4-(2-methoxyethoxy)benzenesulfonyl]-5,6,7,8-tetrahydropyrido[3,4-b]pyrazine-7-carboxamide] | 6.08 |

Second part, the compound after the results:

| pIC50 | Compound |
| --- | --- |
| 6.10 | COc1ccc(S(=O)(=O)N2Cc3nccnc3CC2C(=O)NO)cc1 (racemic) [the compound(1), (±)-N-Hydroxy-6-(4-methoxybenzenesulfonyl)-5,6,7,8-tetrahydropyrido[3,4-b]pyrazine-7-carboxamide] |
| 6.22 | O=C(NO)C1Cc2nccnc2CN1S(=O)(=O)c1ccc(OCCCBr)cc1 (single isomer, unassigned; (+)) [the compound(24), (+)-N-Hydroxy-6-[4-(3-bromopropoxy)benzenesulfonyl]-5,6,7,8-tetrahydropyrido[3,4-b]pyrazine-7-carboxamide] |
| 6.25 | CC(C)COCCCOc1ccc(S(=O)(=O)N2Cc3nccnc3CC2C(=O)NO)cc1 (single isomer, unassigned; (+)) [the compound(26), (+)-N-Hydroxy-6-[4-(3-isobuthoxypropoxy)benzenesulfonyl]-5,6,7,8-tetrahydropyrido[3,4-b]pyrazine-7-carboxamide] |
| 6.34 | CCCCCOc1ccc(S(=O)(=O)N2Cc3nccnc3CC2C(=O)NO)cc1 (racemic) [the compound(9), (±)-N-Hydroxy-6-(4-pentyloxybenzenesulfonyl)-5,6,7,8-tetrahydropyrido[3,4-b]pyrazine-7-carboxamide] |
| 6.37 | CNC(=O)C(NC(=O)C(CC(C)C)C(C)C(=O)NO)c1ccccc1 [the compound a, [4-(N-hydroxyamino)-2 (R)-isobutyl-3-methylsuccinyl]-L-phenylglycine-N-methylamide, reference compound] |
| 6.52 | O=C(NO)C1Cc2nccnc2CN1S(=O)(=O)c1ccc(O)cc1 (single isomer, unassigned; (+)) [the compound(41), (+)-N-Hydroxy-6-(4-hydroxybenzenesulfonyl)-5,6,7,8-tetrahydropyrido[3,4-b]pyrazine-7-carboxamide] |
| 6.70 | N#CCCOc1ccc(S(=O)(=O)N2Cc3nccnc3CC2C(=O)NO)cc1 (single isomer, unassigned; (+)) [the compound(29), (+)-N-Hydroxy-6-[4-(2-cyanoethoxy)benzenesulfonyl]-5,6,7,8-tetrahydropyrido[3,4-b]pyrazine-7-carboxamide] |
| 6.80 | O=C(NO)C1Cc2nccnc2CN1S(=O)(=O)c1ccc(OCCF)cc1 (single isomer, unassigned; (+)) [the compound(18), (+)-N-Hydroxy-6-[4-(2-fluoroethoxy)benzenesulfonyl]-5,6,7,8-tetrahydropyrido[3,4-b]pyrazine-7-carboxamide] |
| 6.92 | CNC(=O)C(Cc1cccc2c1CCCC2)NC(=O)C(CC(C)C)C(C)C(=O)NO [the compound b, [4-(N-hydroxyamino)-2 (R)-isobutyl-3-methylsuccinyl]-L-3-(5,6,7,8-tetrahydro-1-naphtyl)alanine-N-methylamide, reference compound] |
| 7.00 | CNC(=O)C(Cc1ccccc1)NC(=O)C(CC(C)C)C(C)C(=O)NO [the compound f, 4-(N-hydroxyamino)-2 (R)-isobutyl-3-methylsuccinyl-L-phenylalanine-N-methylamide, reference compound] |
